In publication PMC10997755, “Discovery of a small-molecule inhibitor that traps Polθ on DNA and synergizes with PARP inhibitors” (Nature Communications, 2024):

Assays:
Polκ = target: T1, Polκ (Homo sapiens, UniProt Q9UBT6); experiment: Primer extension by recombinant Pols (selectivity); assay type: biochemical
T1 construct: gift: Dr. Arora (Fox Chase Cancer Center)
T1 sequence (Q9UBT6 1-870): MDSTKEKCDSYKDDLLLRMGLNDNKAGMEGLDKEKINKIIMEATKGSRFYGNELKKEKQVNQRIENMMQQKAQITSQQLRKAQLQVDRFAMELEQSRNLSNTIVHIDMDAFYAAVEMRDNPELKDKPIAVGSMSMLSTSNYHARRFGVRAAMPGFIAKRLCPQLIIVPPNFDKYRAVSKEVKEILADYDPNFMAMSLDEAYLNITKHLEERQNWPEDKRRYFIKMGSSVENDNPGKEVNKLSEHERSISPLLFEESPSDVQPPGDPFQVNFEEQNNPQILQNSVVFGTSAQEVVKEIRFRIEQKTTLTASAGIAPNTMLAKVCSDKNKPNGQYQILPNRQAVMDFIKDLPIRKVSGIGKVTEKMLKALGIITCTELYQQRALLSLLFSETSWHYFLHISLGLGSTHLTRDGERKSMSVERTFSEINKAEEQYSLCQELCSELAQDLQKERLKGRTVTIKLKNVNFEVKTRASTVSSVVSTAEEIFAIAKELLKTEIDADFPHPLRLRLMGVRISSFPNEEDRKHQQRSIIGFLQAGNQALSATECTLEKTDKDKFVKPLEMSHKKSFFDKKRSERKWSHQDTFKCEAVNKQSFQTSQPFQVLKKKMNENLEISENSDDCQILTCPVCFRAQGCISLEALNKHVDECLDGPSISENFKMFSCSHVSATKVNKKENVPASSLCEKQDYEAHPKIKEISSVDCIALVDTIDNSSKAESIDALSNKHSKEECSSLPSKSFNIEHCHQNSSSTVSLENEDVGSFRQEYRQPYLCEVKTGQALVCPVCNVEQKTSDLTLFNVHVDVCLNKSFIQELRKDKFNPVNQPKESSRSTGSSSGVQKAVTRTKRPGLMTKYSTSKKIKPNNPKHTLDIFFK

Polβ = target: T2, Polβ (Homo sapiens, UniProt P06746); experiment: Primer extension by recombinant Pols (selectivity); assay type: biochemical
T2 construct: gift: Dr. Wilson (NIEHS)

DLD1 BRCA2 -/- cells = experiment: Western blot γ-H2AX phosphorylation and PARP cleavage; assay type: cell-based; settings: versus parental
Experimental: Cells were harvested using—cell scraper and washed in phosphate-buffered saline (PBS), then lysed in 1 x RIPA Lysis and Extraction Buffer (Thermo Scientific #89901) containing Halt™ Protease and Phosphatase Inhibitor Cocktail (Thermo Scientific #1861281). Protein concentration was measured using Pierce™ BCA Protein Assay Kit (Thermo Scientific #23225). The proteins were separated by electrophoresis using 4–20% Mini-PROTEAN® TGX™ Precast Protein Gels (Bio-Rad #4561096) and transferred to Immuno Blot PVDF Membrane (Bio-Rad #1620177). Membranes were blocked using 5%-milk-TBST (or 5%-BSA-TBST for phospho-proteins) for 1 h at room temperature and washed with TBST prior to antibody incubation. Primary antibodies were incubated overnight at 4 °C in 1%-milk-TBST (or 2%-BSA-TBST for phospho-proteins). γ-H2AX (p Ser139) was detected using antibody (NOVUS #NB100-384) diluted 1:2000. Cleaved PARP was detected using antibody (Cell Signaling #9546) diluted 1:2000. Gapdh was detected using Gapdh (14C10) rabbit monoclonal antibody (Cell Signaling Technology #2118) diluted 1:4000. Membranes were washed with TBST prior to secondary antibody incubation for 1 h at room temperature using respective Goat anti-Rabbit IgG (H + L) HRP (Invitrogen #31466) or Goat anti-Mouse IgG (H + L) HRP (Invitrogen #31430)–tagged Secondary Antibody diluted 1:5000 in 2%-milk-TBST. […]

[1] = selectivity panel, Pol named in Supplementary Fig. 1h

Compound: CN(C(=O)Oc1c(N2CCN(CCO)C2=O)cc(C(F)(F)F)cc1C(F)(F)F)c1ccc(F)cc1 [RTx-161]
- % Full Extension (Polκ; Pol Kappa): 89.30%
- % Inhibition Compared to Control (Polκ; Pol Kappa): 0.85%
- % Relative Maximum Extension (Polκ; Pol Kappa): 99.15%
- inhibition of primer extension (Polκ; [1]): no inhibition
- % Full Extension (Polβ; Pol Beta): 84.31%
- % Inhibition Compared to Control (Polβ; Pol Beta): -0.98%
- % Relative Maximum Extension (Polβ; Pol Beta): 100.98%
- inhibition of primer extension (Polβ; [1]): no inhibition
- PARP cleavage (DLD1 BRCA2 -/- cells): selectively induced PARP cleavage
